In series [1] the target is hNurr1_RXRγFL (NURR1/RXRγ heterodimer) (Homo sapiens, UniProt P43354+P48443). Nature of the series: Transactivation assay in Cos-7 cells, NURR-1-Gal4 / RXRγ, luciferase reporter. It counts as cell-based. Particulars: for Emax: COS-7, read-out: hNurr1_RXRγFL Eff (%), efficacy in % relative to the reference XCT0135908 at 2·10^−5 M (=100%); for EC50: Cos-7 cells, overnight incubation. In outline:
(§1)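 Cos-7 cells co-transfected with human NURR-1-Gal4 chimera, human RXRα or RXRγ, and 5Gal4pGL3-TK-Luc reporter; compounds added at 10^−4 to 3·10^−10 M final, overnight incubation, luciferase read. Induction over each heterodimer's baseline expressed as % of reference RXR agonist XCT0135908 (2·10^−5 M) taken as 100%.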
(In general: A reporter such as luciferase makes a cellular process visible.)

Series [2] relates to mice treated with 1-methyl-4-phenyl-1,2,3,6-tetrahydropyridine (MPTP). Nature of the series: MPTP mouse model, dopamine in the striatum. It counts as in vivo, male C57BL6/J mice. The note with it: oral, twice a day for 11 days; MPTP 25 mg/kg i.p. once a day for 5 days; FIGS. 1 and 2. As for the experimental part:
The compounds of examples 32 and 49 were assayed on a model of mice treated with 1-methyl-4-phenyl-1,2,3,6-tetrahydropyridine (MPTP) in order to confirm their potential activities. MPTP is a neurotoxin which causes permanent symptoms of Parkinson's disease by destroying certain neurons in the substantia nigra of the brain. The following procedure was used.
Male C57BL6/J mice aged 10-12 weeks at the start of the studies were distributed in groups of 8 animals. The compounds were administered orally, twice a day for a total of 11 days. Administration began 3 days before the treatment with the MPTP toxin at 25 mg/kg. MPTP was administered once a day by intraperitoneal injection for 5 days. Administration of the assayed compounds was continued for 3 days after the treatment with MPTP. One group of mice received the carrier only (0.5% solution of methylcellulose). The animals were euthanized after the last force-feeding and the striatum was removed. Dopamine was extracted from the striatum and the amount of dopamine (DA) expressed in ng per g of striatum (mean±SEM) was measured by high-performance liquid chromatography (HPLC) with electrochemical detection.

Series [3] in a line: Plasma and cerebral pharmacokinetic profile after oral administration. It counts as in vivo, male C57B16 mouse. The note with it: oral administration 10 mg/kg in the mouse; for Kp: male, C57B16, brain/plasma, read-out: Ratio AUCbrain/AUCplasma. The procedure: A first series of in vivo assays were conducted with some compounds according to the invention, for the purpose of determining their plasma and cerebral pharmacokinetic profile in the male C57B16 mouse and thus verify that the compounds were capable of crossing the blood-brain barrier. The following procedure was used.
Male C57B16 mice (25-30 g) obtained from the Janvier establishment, Le Genest-St-Isle, France were used for this study (12 mice per dose). The animals were fed with standard rodent feed (Purina Mills, St. Louis, Mo.), placed in cages and subjected to light/darkness cycles of 12 h/12 h, the temperature of the room being maintained at 22±2° C. and the humidity at 55±10%. The mice were not fasting before administration. Water was supplied ad libitum throughout the study. The assayed compound was administered orally at 10 mg/kg. For oral administration at 10 mg/kg, the animals were force-fed with 10 mL/kg of a suspension of the assayed compound, prepared in methylcellulose 400 cp 1%. The animals were euthanized by anaesthesia at intervals of 15 min, 30 min, 1 h, 3 h, 6 h and 8 h after force-feeding. At each interval, blood was collected and the brain was removed from each euthanized animal. 1 mL of blood collected in 1.5 mL tubes containing 20 μL of evaporated anticoagulant (solution of sodium heparinate at 1000 IU/mL) was centrifuged at 4500 g for 3 min, obtaining about 400 μL of plasma. The plasma was distributed in 2 aliquots of 200 μL which were stored at −20° C. until extraction by protein precipitation and then analysis by liquid chromatography coupled with tandem mass spectrometry (LC-MS/MS) for quantification of the assayed compound. The brains were immersed in liquid nitrogen directly after removal, then stored at −20° C. for analysis. The brains were then ground in the presence of aqueous/organic solvent mixture to obtain a homogenate. These homogenates were then centrifuged and the assayed compound was extracted from the supernatant by liquid-liquid extraction, then quantified by LC-MS/MS.
The pharmacokinetic parameters were determined according to a non-compartmental approach using Excel. The area under curve (AUC0-t) was determined by the linear trapezoidal method. This method allows estimation of the integral of the concentrations over an interval of time (AUC0-t) and is based on the sum of the areas of the trapeziums delimited by the concentrations measured at the time of sampling (example AUC0-8 h=AUC0-0.25 h+AUC0.25 h-0.5 h+AUC0.5 h-t+AUCt-8 h). The penetration of the compounds through the blood-brain barrier is assessed from the ratio of the AUC measured in the brain to that measured in plasma. As an example, with the compounds of examples 32 and 49, the following results were obtained: […]

Series [4] addresses hNurr1_RXRαFL (NURR1/RXRα heterodimer) (Homo sapiens, UniProt P19793+P43354). Nature of the series: Transactivation assay in Cos-7 cells, NURR-1-Gal4 / RXRα, luciferase reporter. The class given is cell-based. Particulars: for EC50: Cos-7 cells, overnight incubation. In outline:
as §1

Sequence of hNurr1_RXRαFL (NURR1/RXRα heterodimer) (P19793 whole entry, the tested form may be a part): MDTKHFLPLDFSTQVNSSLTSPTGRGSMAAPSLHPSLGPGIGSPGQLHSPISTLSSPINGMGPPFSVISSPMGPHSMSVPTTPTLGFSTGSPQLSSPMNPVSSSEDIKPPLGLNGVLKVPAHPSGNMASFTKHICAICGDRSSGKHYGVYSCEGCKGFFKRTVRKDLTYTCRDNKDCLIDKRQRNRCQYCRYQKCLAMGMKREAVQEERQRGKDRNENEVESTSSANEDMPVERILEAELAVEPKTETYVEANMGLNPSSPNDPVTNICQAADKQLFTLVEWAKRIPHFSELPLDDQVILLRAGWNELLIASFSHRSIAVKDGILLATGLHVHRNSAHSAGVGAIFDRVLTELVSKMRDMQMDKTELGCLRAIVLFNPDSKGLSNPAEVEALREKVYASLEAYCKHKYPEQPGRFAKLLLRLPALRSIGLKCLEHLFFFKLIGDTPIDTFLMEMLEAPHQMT
Sequence of hNurr1_RXRαFL (NURR1/RXRα heterodimer) (P43354 328-598): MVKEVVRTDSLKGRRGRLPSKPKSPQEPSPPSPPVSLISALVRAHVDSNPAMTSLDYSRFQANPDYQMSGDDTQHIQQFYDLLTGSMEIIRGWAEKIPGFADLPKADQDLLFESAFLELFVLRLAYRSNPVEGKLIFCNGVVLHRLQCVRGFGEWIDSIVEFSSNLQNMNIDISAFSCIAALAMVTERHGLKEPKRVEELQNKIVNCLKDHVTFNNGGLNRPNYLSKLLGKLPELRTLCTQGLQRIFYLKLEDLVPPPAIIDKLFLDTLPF
Sequence of hNurr1_RXRγFL (NURR1/RXRγ heterodimer) (P43354 328-598): as above
Sequence of hNurr1_RXRγFL (NURR1/RXRγ heterodimer) (P48443 whole entry, the tested form may be a part): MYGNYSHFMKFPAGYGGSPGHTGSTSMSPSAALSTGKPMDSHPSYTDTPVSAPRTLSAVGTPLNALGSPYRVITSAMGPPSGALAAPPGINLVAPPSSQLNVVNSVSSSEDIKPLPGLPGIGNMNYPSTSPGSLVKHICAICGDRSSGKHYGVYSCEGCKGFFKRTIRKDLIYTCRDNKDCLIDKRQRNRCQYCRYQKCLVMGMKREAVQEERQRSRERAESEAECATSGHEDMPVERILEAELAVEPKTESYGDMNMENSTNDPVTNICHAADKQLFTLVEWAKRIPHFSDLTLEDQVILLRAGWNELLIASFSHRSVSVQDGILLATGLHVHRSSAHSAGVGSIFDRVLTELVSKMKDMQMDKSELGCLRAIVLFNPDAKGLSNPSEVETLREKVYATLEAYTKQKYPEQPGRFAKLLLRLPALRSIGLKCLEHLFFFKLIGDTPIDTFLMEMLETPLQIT

With `CC(C)c1cccc(S(=O)(=O)n2c(Cc3ccc(C(=O)O)cc3)cc3cc(C(F)(F)F)ccc32)c1` [Example 32, 4-[[1-[[3-(1-methylethyl)phenyl]sulfonyl]-5-(trifluoromethyl)-1H-indol-2-yl]methyl]benzoic acid], in series [1], the Emax came to 62% and the EC50 (in general, the midpoint of the concentration-response curve) was 219 nM. Further, in series [2], the “effect on the MPTP-induced decrease of dopamine in the striatum” value is recorded as “dose-dependent decrease in the action of MPTP”. Further, in series [3], the Kp stood at 0.8 and the AUCbrain amounted to 3763 ng·h/mL. This compound had an EC50 in series [4] of 103 nM. Further, the “hNurr1_RXRαFL Eff (%)” value in series [4] (efficacy in % relative to the reference XCT0135908 at 2·10^−5 M (=100%)) was 68%.

Turning to `CC(C)(C)c1cccc(S(=O)(=O)n2c(Cc3ccc(C(=O)O)cc3)cc3cc(C(F)(F)F)ccc32)c1` [Example 49, 4-[[1-[[3-(1,1-dimethylethyl)phenyl]sulfonyl]-5-(trifluoromethyl)-1H-indol-2-yl]methyl]benzoic acid], in series [1], the Emax was found to be 71% and a half-maximal effect (EC50) was put at 110 nM. For the same compound, in series [2], the “effect on the MPTP-induced decrease of dopamine in the striatum” value is reported as “dose-dependent decrease in the action of MPTP”. In addition, in series [3], the Kp is 0.8 and the AUCbrain was 10491 ng·h/mL. Also, the Emax in series [4] (COS-7, read-out: hNurr1_RXRαFL Eff (%), efficacy in % relative to the reference XCT0135908 at 2·10^−5 M (=100%)) was 73%. Further, the EC50 in series [4] was determined as 48 nM.

These data come from patent publication US20120232070A1, “Use of Indole Derivatives as Nurr-1 Activators for the Application Thereof as a Medicament for the Treatment of Parkinson's Disease” (Laboratoires Fournier SA, priority 2009, published 2012).
